Data as given in ChEMBL document CHEMBL2385026, “Identification of C-2 hydroxyethyl imidazopyrrolopyridines as potent JAK1 inhibitors with favorable physicochemical properties and high selectivity over JAK2” (J Med Chem, 2013).
≈ marks a conversion by molar mass, not a printed value.

Tests used:
Cytochrome P450 3A4 [1] = molecular target: T1, Cytochrome P450 3A4 (Homo sapiens, UniProt P08684); test: Reversible inhibition of CYP3A4 in human liver microsomes using testosterone as substrate by LC/MS/MS analysis; format: ADME, Microsome
Cytochrome P450 1A2 = molecular target: T2, Cytochrome P450 1A2 (Homo sapiens, UniProt P05177); test: Reversible inhibition of CYP1A2 in human liver microsomes using phenacetin as substrate by LC/MS/MS analysis; format: ADME, Microsome
T2 sequence (P05177 whole entry): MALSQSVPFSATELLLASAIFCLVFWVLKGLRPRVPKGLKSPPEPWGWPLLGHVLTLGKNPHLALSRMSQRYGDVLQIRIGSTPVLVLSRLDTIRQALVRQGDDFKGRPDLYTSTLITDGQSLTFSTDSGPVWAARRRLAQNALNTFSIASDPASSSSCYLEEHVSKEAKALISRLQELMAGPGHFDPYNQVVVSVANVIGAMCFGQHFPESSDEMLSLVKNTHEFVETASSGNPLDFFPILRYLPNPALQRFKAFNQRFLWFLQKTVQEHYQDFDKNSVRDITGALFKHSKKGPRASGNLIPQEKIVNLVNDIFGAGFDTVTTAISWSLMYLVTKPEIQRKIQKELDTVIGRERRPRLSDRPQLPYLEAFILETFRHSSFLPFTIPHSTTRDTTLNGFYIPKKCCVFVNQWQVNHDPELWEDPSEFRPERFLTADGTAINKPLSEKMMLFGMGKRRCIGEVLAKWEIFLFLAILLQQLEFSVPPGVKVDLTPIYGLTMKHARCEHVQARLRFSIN

Cytochrome P450 3A4 [2] = molecular target: T1, Cytochrome P450 3A4; test: Reversible inhibition of CYP3A4 in human liver microsomes using midazolam as substrate by LC/MS/MS analysis; format: ADME, Microsome
[3] = molecular target: Tyrosine-protein kinase JAK3 (Homo sapiens, UniProt P52333)
[4] = Oral bioavailability in Beagle dog at 2 mg/kg by LC/MS/MS analysis; format: ADME, organism-based, Canis lupus familiaris; settings: Beagle, in vivo
[5] = Oral bioavailability in Sprague-Dawley rat at 2 mg/kg by LC/MS/MS analysis; format: ADME, organism-based; settings: Sprague-Dawley, in vivo
[6] = Cmax in Beagle dog at 2 mg/kg, po by LC/MS/MS analysis; format: ADME, organism-based, Canis lupus familiaris; parameters: dose 2 mg/kg, route oral; settings: in vivo
[7] = AUC in Beagle dog at 2 mg/kg, po by LC/MS/MS analysis; format: ADME, organism-based, Canis lupus familiaris; parameters: dose 2 mg/kg, route oral; settings: plasma
[8] = AUC in Sprague-Dawley rat at 2 mg/kg, po by LC/MS/MS analysis; format: ADME, organism-based; parameters: dose 2 mg/kg, route oral; settings: plasma
[9] = Half life in Beagle dog at 0.4 mg/kg, iv by LC/MS/MS analysis; format: ADME, organism-based, Canis lupus familiaris; parameters: dose 0.4 mg/kg, route intravenous; settings: in vivo
[10] = Half life in Sprague-Dawley rat at 0.4 mg/kg, iv by LC/MS/MS analysis; format: ADME, organism-based; parameters: dose 0.4 mg/kg, route intravenous; settings: in vivo
[11] = Clearance in Beagle dog at 0.4 mg/kg, iv by LC/MS/MS analysis; format: ADME, organism-based, Canis lupus familiaris; parameters: dose 0.4 mg/kg, route intravenous; settings: in vivo
[12] = Clearance in Sprague-Dawley rat at 0.4 mg/kg, iv by LC/MS/MS analysis; format: ADME, organism-based; parameters: dose 0.4 mg/kg, route intravenous; settings: in vivo
[13] = Metabolic stability in monkey hepatocytes assessed as hepatic clearance; format: ADME, cell-based, Macaca mulatta, Liver, Hepatocyte; settings: rhesus monkey
[14] = Metabolic stability in dog hepatocytes assessed as hepatic clearance; format: ADME, cell-based, Canis lupus familiaris, Liver, Hepatocyte
[15] = Metabolic stability in rat hepatocytes assessed as hepatic clearance; format: ADME, cell-based, Liver, Hepatocyte
[16] = Plasma protein binding in cynomolgus monkey; format: ADME, cell-free, Macaca fascicularis; settings: read-out: PPB (converted)
[17] = Plasma protein binding in dog; format: ADME, cell-free, Canis lupus familiaris; settings: read-out: PPB (converted)
[18] = Apparent permeability across basolateral to apical side in dog MDCK cells; format: ADME, cell-based, Canis lupus familiaris
[19] = Plasma protein binding in rat; format: ADME, cell-free; settings: read-out: PPB (converted)
[20] = Thermodynamic solubility in aqueous buffer at pH 7.4; format: physicochemical; settings: read-out: Therm_solubility
[21] = Thermodynamic solubility in aqueous buffer at pH 2; format: physicochemical; settings: read-out: Therm_solubility
[22] = Hepatic clearance in human liver microsomes by LC/MS/MS analysis; format: ADME, Microsome
[23] = Hepatic clearance in human hepatocytes after 1 to 4 hrs by LC/MS/MS analysis; format: ADME, cell-based, Liver, Hepatocyte
[24] = Apparent permeability across apical to basolateral side in dog MDCK cells; format: ADME, cell-based, Canis lupus familiaris
[25] = Cmax in Sprague-Dawley rat at 2 mg/kg, po by LC/MS/MS analysis; format: ADME, organism-based; parameters: dose 2 mg/kg, route oral; settings: in vivo
Cytochrome P450 2C19 = Cytochrome P450 2C19 (Homo sapiens, UniProt P33261)
Cytochrome P450 2D6 = Cytochrome P450 2D6 (Homo sapiens, UniProt P10635)
Cytochrome P450 2C9 = Cytochrome P450 2C9 (Homo sapiens, UniProt P11712)
[26] = molecular target: Voltage-gated inwardly rectifying potassium channel KCNH2 (Homo sapiens, UniProt Q12809)
[27] = molecular target: T3, Non-receptor tyrosine-protein kinase TYK2 (Homo sapiens, UniProt P29597)
[28] = molecular target: T3, Non-receptor tyrosine-protein kinase TYK2; remark: listed apart in the source
[29] = molecular target: T4, Tyrosine-protein kinase JAK1 (Homo sapiens, UniProt P23458)
[30] = molecular target: T4, Tyrosine-protein kinase JAK1; remark: listed apart in the source
[31] = molecular target: T4, Tyrosine-protein kinase JAK1; remark: listed apart in the source
[32] = molecular target: Macrophage colony-stimulating factor 1 receptor (Homo sapiens) (UniProt P07333); test: Inhibition of CSF1R (unknown origin) at 1 uM
[33] = molecular target: Leucine-rich repeat serine/threonine-protein kinase 2 (Homo sapiens) (UniProt Q5S007); test: Inhibition of LRRK2 (unknown origin) at 1 uM
[34] = molecular target: T5, Tyrosine-protein kinase JAK2 (Homo sapiens, UniProt O60674); format: cell-based, TF-1
[35] = molecular target: T5, Tyrosine-protein kinase JAK2

T4 sequence (P23458 whole entry): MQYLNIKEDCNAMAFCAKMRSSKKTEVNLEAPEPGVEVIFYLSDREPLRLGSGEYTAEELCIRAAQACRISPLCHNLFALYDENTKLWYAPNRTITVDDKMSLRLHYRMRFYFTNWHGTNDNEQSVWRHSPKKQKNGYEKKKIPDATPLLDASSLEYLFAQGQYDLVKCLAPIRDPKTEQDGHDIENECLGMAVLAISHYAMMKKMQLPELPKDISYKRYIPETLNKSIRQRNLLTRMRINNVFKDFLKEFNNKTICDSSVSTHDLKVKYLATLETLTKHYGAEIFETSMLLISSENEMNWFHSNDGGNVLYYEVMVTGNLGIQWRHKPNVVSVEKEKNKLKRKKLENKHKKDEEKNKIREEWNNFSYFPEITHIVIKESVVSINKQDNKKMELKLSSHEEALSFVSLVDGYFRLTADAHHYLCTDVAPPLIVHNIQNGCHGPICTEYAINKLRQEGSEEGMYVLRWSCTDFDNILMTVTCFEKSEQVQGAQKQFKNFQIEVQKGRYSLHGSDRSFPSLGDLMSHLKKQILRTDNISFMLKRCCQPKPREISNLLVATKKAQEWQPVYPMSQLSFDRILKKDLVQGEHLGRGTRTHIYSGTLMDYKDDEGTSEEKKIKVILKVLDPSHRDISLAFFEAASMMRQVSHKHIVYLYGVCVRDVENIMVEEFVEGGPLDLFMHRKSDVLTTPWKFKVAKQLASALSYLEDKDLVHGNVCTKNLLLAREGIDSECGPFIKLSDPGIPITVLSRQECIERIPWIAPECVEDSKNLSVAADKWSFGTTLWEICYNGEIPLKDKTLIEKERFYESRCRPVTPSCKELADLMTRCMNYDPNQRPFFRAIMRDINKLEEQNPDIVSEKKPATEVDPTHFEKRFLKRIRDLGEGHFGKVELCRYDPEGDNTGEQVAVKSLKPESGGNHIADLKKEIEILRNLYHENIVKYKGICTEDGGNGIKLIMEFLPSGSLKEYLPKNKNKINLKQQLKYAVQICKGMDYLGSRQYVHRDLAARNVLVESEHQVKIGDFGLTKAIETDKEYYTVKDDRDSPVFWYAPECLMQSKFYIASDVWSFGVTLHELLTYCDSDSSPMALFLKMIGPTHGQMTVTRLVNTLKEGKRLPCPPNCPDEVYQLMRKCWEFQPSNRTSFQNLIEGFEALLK
T1 sequence (P08684 whole entry): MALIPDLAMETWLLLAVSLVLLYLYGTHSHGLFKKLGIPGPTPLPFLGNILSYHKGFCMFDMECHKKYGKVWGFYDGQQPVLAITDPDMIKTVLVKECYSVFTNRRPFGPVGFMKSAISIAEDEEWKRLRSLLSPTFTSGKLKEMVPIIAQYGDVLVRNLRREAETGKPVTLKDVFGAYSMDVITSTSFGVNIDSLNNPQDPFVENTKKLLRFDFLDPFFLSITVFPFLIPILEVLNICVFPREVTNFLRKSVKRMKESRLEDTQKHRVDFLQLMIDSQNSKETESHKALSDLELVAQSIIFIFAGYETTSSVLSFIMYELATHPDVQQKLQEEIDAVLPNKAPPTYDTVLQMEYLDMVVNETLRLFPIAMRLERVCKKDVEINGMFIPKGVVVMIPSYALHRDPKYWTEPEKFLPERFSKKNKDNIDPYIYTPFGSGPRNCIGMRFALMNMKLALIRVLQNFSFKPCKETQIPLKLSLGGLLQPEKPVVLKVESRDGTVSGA
T3 sequence (P29597 whole entry): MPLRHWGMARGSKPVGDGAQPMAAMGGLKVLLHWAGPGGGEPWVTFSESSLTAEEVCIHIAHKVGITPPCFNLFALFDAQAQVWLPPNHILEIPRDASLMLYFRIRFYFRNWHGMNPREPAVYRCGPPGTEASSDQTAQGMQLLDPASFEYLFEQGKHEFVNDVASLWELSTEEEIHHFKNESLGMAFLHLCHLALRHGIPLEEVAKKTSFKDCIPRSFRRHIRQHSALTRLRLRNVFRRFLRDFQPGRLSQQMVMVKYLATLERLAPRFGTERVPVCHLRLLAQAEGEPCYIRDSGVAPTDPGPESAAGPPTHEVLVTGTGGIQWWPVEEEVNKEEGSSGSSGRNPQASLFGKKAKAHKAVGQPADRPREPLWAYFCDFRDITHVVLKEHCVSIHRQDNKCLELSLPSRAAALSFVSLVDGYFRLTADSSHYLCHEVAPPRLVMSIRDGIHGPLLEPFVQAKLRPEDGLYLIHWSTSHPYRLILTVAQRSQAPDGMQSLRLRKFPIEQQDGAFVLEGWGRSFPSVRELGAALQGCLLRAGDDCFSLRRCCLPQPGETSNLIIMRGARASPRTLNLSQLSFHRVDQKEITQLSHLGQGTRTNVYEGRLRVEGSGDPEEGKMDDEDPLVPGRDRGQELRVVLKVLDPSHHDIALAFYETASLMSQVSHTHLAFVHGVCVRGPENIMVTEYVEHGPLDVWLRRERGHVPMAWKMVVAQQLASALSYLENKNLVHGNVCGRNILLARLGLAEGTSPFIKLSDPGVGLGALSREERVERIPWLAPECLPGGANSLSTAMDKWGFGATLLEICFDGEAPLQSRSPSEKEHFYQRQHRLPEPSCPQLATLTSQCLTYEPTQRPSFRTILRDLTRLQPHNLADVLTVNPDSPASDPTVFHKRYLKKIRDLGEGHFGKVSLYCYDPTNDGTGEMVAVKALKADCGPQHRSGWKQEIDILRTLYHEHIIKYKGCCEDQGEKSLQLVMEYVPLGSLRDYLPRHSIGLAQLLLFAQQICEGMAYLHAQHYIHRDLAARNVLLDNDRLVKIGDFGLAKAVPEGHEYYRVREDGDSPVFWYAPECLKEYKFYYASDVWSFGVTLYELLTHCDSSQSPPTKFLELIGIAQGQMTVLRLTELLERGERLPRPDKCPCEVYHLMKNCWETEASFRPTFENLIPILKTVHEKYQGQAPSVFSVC
T5 sequence (O60674 whole entry): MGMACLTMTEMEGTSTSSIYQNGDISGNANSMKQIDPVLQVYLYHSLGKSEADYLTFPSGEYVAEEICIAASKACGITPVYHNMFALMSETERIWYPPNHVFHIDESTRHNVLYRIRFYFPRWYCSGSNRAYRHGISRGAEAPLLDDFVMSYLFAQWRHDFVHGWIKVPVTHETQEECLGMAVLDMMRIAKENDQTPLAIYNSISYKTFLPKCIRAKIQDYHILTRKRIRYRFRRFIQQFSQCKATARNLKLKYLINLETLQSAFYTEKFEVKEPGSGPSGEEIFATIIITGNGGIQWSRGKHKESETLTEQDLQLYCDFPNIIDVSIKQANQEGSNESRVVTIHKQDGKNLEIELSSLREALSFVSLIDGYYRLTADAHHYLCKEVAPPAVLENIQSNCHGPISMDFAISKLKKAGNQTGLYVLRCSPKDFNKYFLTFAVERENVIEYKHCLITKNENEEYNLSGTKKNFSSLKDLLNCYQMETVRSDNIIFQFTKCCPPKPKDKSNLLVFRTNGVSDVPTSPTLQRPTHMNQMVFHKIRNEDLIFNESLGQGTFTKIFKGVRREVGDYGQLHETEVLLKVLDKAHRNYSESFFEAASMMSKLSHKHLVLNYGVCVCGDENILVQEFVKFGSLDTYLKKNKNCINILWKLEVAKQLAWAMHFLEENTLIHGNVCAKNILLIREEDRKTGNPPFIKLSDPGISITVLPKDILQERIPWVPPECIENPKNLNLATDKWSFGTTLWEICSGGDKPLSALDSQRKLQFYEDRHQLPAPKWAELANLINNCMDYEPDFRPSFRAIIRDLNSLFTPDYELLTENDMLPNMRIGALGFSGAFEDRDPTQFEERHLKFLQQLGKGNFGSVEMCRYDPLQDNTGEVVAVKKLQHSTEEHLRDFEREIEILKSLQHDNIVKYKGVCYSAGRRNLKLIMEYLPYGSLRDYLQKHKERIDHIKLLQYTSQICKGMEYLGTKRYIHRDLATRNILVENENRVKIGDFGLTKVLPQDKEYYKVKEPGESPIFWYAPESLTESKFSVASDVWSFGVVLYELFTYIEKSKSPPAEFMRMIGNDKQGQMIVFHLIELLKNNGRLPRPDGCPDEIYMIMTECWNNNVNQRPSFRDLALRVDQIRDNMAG
Tyrosine-protein kinase JAK3, sequence (P52333 whole entry): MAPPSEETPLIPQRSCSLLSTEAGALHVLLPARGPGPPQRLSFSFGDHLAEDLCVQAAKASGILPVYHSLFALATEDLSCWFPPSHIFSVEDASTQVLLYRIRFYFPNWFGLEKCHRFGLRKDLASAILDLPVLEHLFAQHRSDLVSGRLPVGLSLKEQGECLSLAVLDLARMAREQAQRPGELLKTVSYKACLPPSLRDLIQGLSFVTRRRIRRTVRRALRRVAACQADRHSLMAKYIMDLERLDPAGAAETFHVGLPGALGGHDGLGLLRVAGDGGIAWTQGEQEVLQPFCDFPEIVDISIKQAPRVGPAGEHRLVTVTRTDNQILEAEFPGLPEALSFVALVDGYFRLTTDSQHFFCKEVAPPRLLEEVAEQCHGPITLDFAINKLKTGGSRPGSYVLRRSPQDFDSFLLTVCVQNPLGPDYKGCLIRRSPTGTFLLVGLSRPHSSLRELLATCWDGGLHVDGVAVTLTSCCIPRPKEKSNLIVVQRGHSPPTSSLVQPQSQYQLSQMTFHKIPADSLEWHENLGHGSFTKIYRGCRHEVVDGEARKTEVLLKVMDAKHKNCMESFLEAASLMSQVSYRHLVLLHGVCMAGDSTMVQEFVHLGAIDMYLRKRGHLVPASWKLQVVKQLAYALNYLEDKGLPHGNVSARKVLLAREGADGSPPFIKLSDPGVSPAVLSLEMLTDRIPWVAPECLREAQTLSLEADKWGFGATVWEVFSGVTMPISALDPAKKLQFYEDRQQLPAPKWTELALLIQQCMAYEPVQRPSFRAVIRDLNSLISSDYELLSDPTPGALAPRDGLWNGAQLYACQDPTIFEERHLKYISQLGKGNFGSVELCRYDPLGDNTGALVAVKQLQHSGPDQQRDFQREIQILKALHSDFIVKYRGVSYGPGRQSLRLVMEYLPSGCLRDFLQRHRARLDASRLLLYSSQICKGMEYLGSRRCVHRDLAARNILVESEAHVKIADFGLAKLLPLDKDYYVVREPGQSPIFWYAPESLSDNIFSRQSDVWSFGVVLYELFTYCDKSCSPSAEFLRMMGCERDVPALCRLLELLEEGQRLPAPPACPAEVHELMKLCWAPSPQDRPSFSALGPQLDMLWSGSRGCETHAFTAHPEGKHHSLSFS

Row | IC50 (Cytochrome P450 3A4 [1]) [nM] | IC50 (Cytochrome P450 1A2) [nM] | IC50 (Cytochrome P450 3A4 [2]) [nM] | Ki [3] [nM] | bioavailability [4] [%] | bioavailability [5] [%] | Cmax [6] [nM] | AUC [7] [µM·h] | AUC [8] [µM·h] | half-life [9] [h] | half-life [10] [h] | clearance [11] [mL/min/kg] | clearance [12] [mL/min/kg] | CLhep predicted [13] [mL/min/kg] | CLhep predicted [22] [mL/min/kg] | CLhep predicted [23] [mL/min/kg] | Papp A→B [24] [×10⁻⁶ cm/s] | EC50 [29] [nM] | EC50 [30] [nM] | Ki [31] [nM] | SMILES | further results
1 | > 10000 | > 10000 | > 10000 | 76 | 139 | 54 | 2100 | 9.9 | 1.4 | 1.7 | 0.5 | 13 | 36 | 26 | 3.3 | 2 | 6.7 | 29 | 28 | 0.8 | C[C@@H](O)c1nc2cnc3[nH]ccc3c2n1[C@H]1CC[C@H](NCC(F)(F)F)CC1 | CLhep predicted [14]: 2.3 mL/min/kg; CLhep predicted [15]: 11 mL/min/kg; fraction unbound [16]: 0.35; fraction unbound [17]: 0.45; Papp B→A [18]: 10 ×10⁻⁶ cm/s; fraction unbound [19]: 0.44; solubility thermodynamic [20]: 130 µM (≈ 49.6 µg/mL); solubility thermodynamic [21]: 3900 µM (≈ 1490 µg/mL); Cmax [25]: 960 nM; IC50 (Cytochrome P450 2C19): > 10000 nM; IC50 (Cytochrome P450 2D6): > 10000 nM; IC50 (Cytochrome P450 2C9): > 10000 nM; IC50 [26]: > 100000 nM; EC50 [27]: 310 nM; Ki [28]: 3.4 nM
2 | > 10000 | > 10000 | > 10000 | 53 | 131 | 61 | 3000 | 9 | 1 | 1.2 | 1.1 | 14 | 55 | 27 | 3.8 | 3.6 | 10 | 51 | 70 | 2 | C[C@@H](O)c1nc2cnc3[nH]ccc3c2n1[C@H]1CC[C@@H](NCC(F)(F)F)C1 | inhibition [32]: 75%; inhibition [33]: 72%; CLhep predicted [14]: 9.8 mL/min/kg; CLhep predicted [15]: 14 mL/min/kg; fraction unbound [16]: 0.44; fraction unbound [17]: 0.41; Papp B→A [18]: 18 ×10⁻⁶ cm/s; fraction unbound [19]: 0.51; solubility thermodynamic [20]: 70 µM (≈ 25.7 µg/mL); solubility thermodynamic [21]: > 4000 µM; Cmax [25]: 980 nM; IC50 (Cytochrome P450 2C19): > 10000 nM; IC50 (Cytochrome P450 2D6): > 10000 nM; IC50 (Cytochrome P450 2C9): > 10000 nM; EC50 [27]: 2200 nM; Ki [28]: 20 nM
3 | – | – | – | – | – | – | – | – | – | – | – | – | – | – | 5.6 | 19 | 24 | 313 | 64 | 1.1 | OCc1nc2cnc3[nH]ccc3c2n1C1CCCCC1 | EC50 [34]: 730 nM; Ki [35]: 8.3 nM
